Results: the supplement of paper PMC10307832

Legend:
Test in all cases: relative viability (nuclei count vs DMSO), 5 days (fraction); higher = more cells survive
[1] = compound: CCC1=CN=CN=C1N2CCN(CC2)CC3=NC4=C(N3)C=C(C=C4)C(F)(F)F + Cc1cc(Nc2cc(N3CCN(C)CC3)nc(Sc3ccc(NC(=O)C4CC4)cc3)n2)n[nH]1 [Tozasertib] (partner 0.1 µM)
In short: (§1)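 Dosing by pin tool came one day after lung cancer cell lines were seeded in 1536-well plates, using either one drug or a fixed anchor-drug dose plus five library-drug doses (not always all listed) in √10 steps. After 5 days, nuclei were counted on 4× images. Relative viability is treated-well nuclei count divided by vehicle-well nuclei count, and values are medians of duplicate plates.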

[2] = compound: CCn1c(-c2nonc2N)nc2cnc(Oc3cccc(NC(=O)c4ccc(OCCN5CCOCC5)cc4)c3)cc21 + CC(=O)Nc1cccc(-n2c(=O)n(C3CC3)c(=O)c3c(Nc4ccc(I)cc4F)n(C)c(=O)c(C)c32)c1 [Trametinib] (partner 0.02 µM)
In short: as §1

[3] = compound: CCn1c(-c2nonc2N)nc2cnc(Oc3cccc(NC(=O)c4ccc(OCCN5CCOCC5)cc4)c3)cc21 + Nc1nc2[nH]cc(CCc3ccc(C(=O)N[C@@H](CCC(=O)O)C(=O)O)cc3)c2c(=O)[nH]1 [Pemetrexed] (partner 0.2 µM)
In short: as §1

Mirin + Dasatinib = compound: N=C1NC(=O)/C(=C/c2ccc(O)cc2)S1 [Mirin] + Cc1nc(Nc2ncc(C(=O)Nc3c(C)cccc3Cl)s2)cc(N2CCN(CCO)CC2)n1 [Dasatinib] (partner 0.075 µM)
In short: as §1

| Cell Line | relative viability ([1]; first compound 0.04 µM) | relative viability ([1]; first compound 0.1265 µM) | relative viability ([1]; first compound 0.4 µM) | relative viability ([1]; first compound 1.265 µM) | relative viability ([1]; first compound 4 µM) | relative viability ([2]; first compound 0.04 µM) | relative viability ([2]; first compound 0.1265 µM) | relative viability ([2]; first compound 0.4 µM) | relative viability ([2]; first compound 1.265 µM) | relative viability ([2]; first compound 4 µM) | relative viability ([3]; first compound 0.04 µM) | relative viability ([3]; first compound 0.1265 µM) | relative viability ([3]; first compound 0.4 µM) | relative viability ([3]; first compound 1.265 µM) | relative viability ([3]; first compound 4 µM) | relative viability (Mirin + Dasatinib; first compound 0.25 µM) | relative viability (Mirin + Dasatinib; first compound 0.7906 µM) | relative viability (Mirin + Dasatinib; first compound 2.5 µM) | relative viability (Mirin + Dasatinib; first compound 7.906 µM) | relative viability (Mirin + Dasatinib; first compound 25 µM) |
| --- | --- | --- | --- | --- | --- | --- | --- | --- | --- | --- | --- | --- | --- | --- | --- | --- | --- | --- | --- | --- |
| NCI-H2228 | 0.252 | 0.249 | 0.22 | 0.335 | 0.253 | 0.558 | 0.495 | 0.345 | 0.349 | 0.362 | 0.328 | 0.289 | 0.302 | 0.285 | 0.333 | 0.594 | 0.458 | 0.516 | 0.448 | 0.412 |
| NCI-H2342 | 0.467 | 0.428 | 0.571 | 0.333 | 0.398 | 0.803 | 0.85 | 0.989 | 0.621 | 0.801 | 0.75 | 0.782 | 0.736 | 0.474 | 0.76 | 0.35 | 0.342 | 0.327 | 0.289 | 0.317 |
| NCI-H2347 | 0.405 | 0.454 | 0.579 | 0.389 | 0.513 | 0.261 | 0.279 | 0.298 | 0.238 | 0.262 | 0.438 | 0.424 | 0.399 | 0.33 | 0.371 | 0.336 | 0.316 | 0.344 | 0.287 | 0.273 |
| NCI-H2405 | 0.779 | 0.759 | 0.741 | – | 0.685 | 0.537 | 0.385 | 0.311 | 0.253 | 0.26 | 1.01 | 0.395 | 0.315 | 0.247 | 0.284 | 0.195 | 0.252 | 0.206 | 0.206 | 0.192 |
| NCI-H3122 | 0.423 | 0.405 | 0.384 | 0.345 | 0.439 | 0.175 | 0.189 | 0.254 | 0.226 | 0.247 | 0.217 | 0.214 | 0.183 | 0.17 | 0.202 | 0.892 | 0.419 | 0.807 | 0.685 | 0.665 |
| PC-3 [JPC-3] | 0.883 | 0.814 | 0.844 | 0.886 | 0.776 | 0.693 | 0.589 | 0.591 | 0.598 | 0.537 | 1.14 | 1.03 | 1.05 | 0.662 | 0.928 | 1.03 | 0.979 | 1.04 | 0.981 | 1.08 |
| PC-14 | 0.599 | 0.546 | 0.55 | 0.502 | 0.582 | 0.632 | 0.379 | 0.468 | 0.426 | 0.396 | 0.136 | 0.149 | 0.131 | 0.138 | 0.177 | 0.243 | 0.248 | 0.26 | – | 0.295 |
| RERF-LC-KJ | 0.517 | 0.503 | 0.464 | 0.459 | 0.398 | 0.862 | 0.898 | 0.826 | 0.562 | 0.589 | 0.471 | 0.439 | 0.418 | 0.384 | 0.415 | 0.958 | 0.831 | 0.843 | 0.685 | 0.688 |
| SK-LU-1 | 0.326 | 0.334 | 0.362 | 0.335 | 0.274 | 0.481 | 0.386 | 0.378 | 0.254 | 0.311 | 0.918 | 0.906 | 0.772 | 0.457 | 0.372 | 0.209 | 0.163 | 0.161 | 0.209 | 0.224 |
| SK-MES-1 | 0.893 | 0.872 | 0.797 | 0.918 | 0.865 | 0.534 | 0.519 | 0.402 | 0.391 | 0.328 | 1.08 | 0.941 | 0.829 | 0.66 | 0.46 | 0.368 | 0.341 | 0.446 | 0.475 | 0.389 |
| SW 900 | 0.538 | 0.585 | 0.497 | 0.548 | 0.523 | 0.602 | 0.802 | 0.828 | 0.918 | 0.849 | 0.526 | 0.49 | 0.439 | 0.442 | 0.444 | 0.513 | 0.521 | 0.54 | 0.542 | 0.47 |
| SW 1573 | 0.205 | 0.214 | 0.181 | 0.153 | 0.203 | 0.716 | 0.577 | 0.478 | 0.229 | 0.19 | 0.913 | 0.821 | 0.535 | 0.32 | 0.261 | 0.466 | 0.506 | 0.605 | 0.361 | 0.295 |
